Values after ≈ are worked out from the molar mass of the structure shown.
Columns and labels:
Format in all cases: functional
[1] = tested on: Mycobacterium tuberculosis; experiment: Antibacterial activity against 1 ug/ml Mycobacterium tuberculosis H37Rv ATCC 27294 assessed as growth inhibition after 7 days by microtiter plate assay; details: H37Rv ATCC 27294, 168 h
[2] = tested on: Mycobacterium tuberculosis; experiment: Antibacterial activity against 0.5 ug/ml Mycobacterium tuberculosis H37Rv ATCC 27294 assessed as growth inhibition after 7 days by microtiter plate assay; details: H37Rv ATCC 27294, 168 h
[3] = tested on: Salmonella; experiment: Antibacterial activity against Salmonella assessed as growth inhibition after 7 days by microtiter plate assay; details: 168 h
[4] = tested on: Pseudomonas aeruginosa; experiment: Antibacterial activity against Pseudomonas aeruginosa assessed as growth inhibition after 7 days by microtiter plate assay; details: 168 h
[5] = tested on: Staphylococcus aureus; experiment: Antibacterial activity against Staphylococcus aureus assessed as growth inhibition after 7 days by microtiter plate assay; details: 168 h
[6] = tested on: Escherichia coli; experiment: Antibacterial activity against Escherichia coli assessed as growth inhibition after 7 days by microtiter plate assay; details: 168 h
[7] = tested on: Escherichia coli; experiment: Antibacterial activity against duck Escherichia coli assessed as growth inhibition after 7 days by microtiter plate assay; details: 168 h
[8] = tested on: Salmonella; experiment: Antibacterial activity against Salmonella assessed as zone of inhibition at 2 ug/ml; details: read-out: DIZ
[9] = tested on: Pseudomonas aeruginosa; experiment: Antibacterial activity against Pseudomonas aeruginosa assessed as zone of inhibition at 2 ug/ml; details: read-out: DIZ
[10] = tested on: Staphylococcus aureus; experiment: Antibacterial activity against Staphylococcus aureus assessed as zone of inhibition at 2 ug/ml; details: read-out: DIZ
[11] = tested on: Escherichia coli; experiment: Antibacterial activity against Escherichia coli assessed as zone of inhibition at 2 ug/ml; details: read-out: DIZ
[12] = tested on: Escherichia coli; experiment: Antibacterial activity against duck Escherichia coli assessed as zone of inhibition at 2 ug/ml; details: read-out: DIZ
[13] = tested on: Mycobacterium tuberculosis; experiment: Antibacterial activity against drug-sensitive 1 ug/ml Mycobacterium tuberculosis clinical isolate 741 assessed as growth inhibition after 7 days by microtiter plate assay; details: isolate 741, 168 h
[14] = tested on: Mycobacterium tuberculosis; experiment: Antibacterial activity against drug-sensitive 1 ug/ml Mycobacterium tuberculosis clinical isolate 753 assessed as growth inhibition after 7 days by microtiter plate assay; details: isolate 753, 168 h
[15] = tested on: Mycobacterium tuberculosis; experiment: Antibacterial activity against drug-sensitive 1 ug/ml Mycobacterium tuberculosis clinical isolate 758 assessed as growth inhibition after 7 days by microtiter plate assay; details: isolate 758, 168 h
[16] = tested on: Mycobacterium tuberculosis; experiment: Antibacterial activity against drug-sensitive 1 ug/ml Mycobacterium tuberculosis clinical isolate 760 assessed as growth inhibition after 7 days by microtiter plate assay; details: isolate 760, 168 h
[17] = tested on: Mycobacterium tuberculosis; experiment: Antibacterial activity against drug-sensitive 1 ug/ml Mycobacterium tuberculosis clinical isolate 821 assessed as growth inhibition after 7 days by microtiter plate assay; details: isolate 821, 168 h
[18] = tested on: Mycobacterium tuberculosis; experiment: Antibacterial activity against Mycobacterium tuberculosis H37Rv ATCC 27294 assessed as growth inhibition after 7 days by microtiter plate assay; details: H37Rv ATCC 27294, 168 h

Structure (SMILES)	MIC [1] [µM]	MIC [2] [µM]	MIC [3] [µg/mL]	MIC [4] [µg/mL]	MIC [5] [µg/mL]	MIC [6] [µg/mL]	MIC [7] [µg/mL]	zone of inhibition at 2 µg/mL [8] [mm]	zone of inhibition at 2 µg/mL [9] [mm]	zone of inhibition at 2 µg/mL [10] [mm]	zone of inhibition at 2 µg/mL [11] [mm]	zone of inhibition at 2 µg/mL [12] [mm]	MIC [13] [µg/mL]	MIC [14] [µg/mL]	MIC [15] [µg/mL]	MIC [16] [µg/mL]	MIC [17] [µg/mL]	MIC [18] [µM]
C[C@H]1[C@@H](OC(=O)CCC(=O)NC2CCN(c3c(F)cc4c(=O)c(C(=O)O)cn(C5CC5)c4c3Cl)C2)O[C@@H]2O[C@@]3(C)CC[C@H]4[C@H](C)CC[C@@H]1[C@@]24OO3 (stereo not given in full)	2.73 (≈ 2 µg/mL)	1.37 (≈ 1 µg/mL)	16 (≈ 21.9 µM)	16 (≈ 21.9 µM)	8 (≈ 10.9 µM)	8 (≈ 10.9 µM)	16 (≈ 21.9 µM)	10	< 5	< 5	9	< 5						
C[C@H]1[C@@H](OC(=O)CCC(=O)N2CCN(c3cc4c(cc3F)c(=O)c(C(=O)O)cn4C3CC3)CC2)O[C@@H]2O[C@@]3(C)CC[C@H]4[C@H](C)CC[C@@H]1[C@@]24OO3	2.07 (≈ 1.44 µg/mL)	2.07 (≈ 1.44 µg/mL)	16 (≈ 22.9 µM)	16 (≈ 22.9 µM)	16 (≈ 22.9 µM)	16 (≈ 22.9 µM)	16 (≈ 22.9 µM)	< 5	< 5	< 5	9	< 5						
CCn1cc(C(=O)O)c(=O)c2cc(F)c(N3CCN(C(=O)CCC(=O)O[C@H]4O[C@@H]5O[C@@]6(C)CC[C@H]7[C@H](C)CC[C@@H]([C@H]4C)[C@@]57OO6)CC3)cc21	> 5.83	> 5.83	16 (≈ 23.3 µM)	16 (≈ 23.3 µM)	16 (≈ 23.3 µM)	16 (≈ 23.3 µM)	16 (≈ 23.3 µM)	< 5	< 5	< 5	6	< 5						
C[C@H]1[C@@H](OC(=O)CCC(=O)N2CCN(c3cc4c(cc3F)c(=O)c(C(=O)O)cn4-c3ccc(F)cc3)CC2)O[C@@H]2O[C@@]3(C)CC[C@H]4[C@H](C)CC[C@@H]1[C@@]24OO3	> 5.32	> 5.32	16 (≈ 21.3 µM)	16 (≈ 21.3 µM)	8 (≈ 10.6 µM)	16 (≈ 21.3 µM)	8 (≈ 10.6 µM)	< 5	< 5	< 5	< 5	< 5						
C[C@H]1[C@@H](OCCCNC2CCN(c3c(F)cc4c(=O)c(C(=O)O)cn(C5CC5)c4c3Cl)C2)O[C@@H]2O[C@@]3(C)CC[C@H]4[C@H](C)CC[C@@H]1[C@@]24OO3 (stereo not given in full)	0.181 (≈ 0.125 µg/mL)	0.181 (≈ 0.125 µg/mL)	16 (≈ 23.2 µM)	8 (≈ 11.6 µM)	16 (≈ 23.2 µM)	8 (≈ 11.6 µM)	8 (≈ 11.6 µM)	10	< 5	< 5	7	< 5	0.125 (≈ 0.181 µM)	0.125 (≈ 0.181 µM)	0.125 (≈ 0.181 µM)	0.125 (≈ 0.181 µM)	1 (≈ 1.45 µM)	
C[C@H]1[C@@H](OCCCN2CCN(c3cc4c(cc3F)c(=O)c(C(=O)O)cn4C3CC3)CC2)O[C@@H]2O[C@@]3(C)CC[C@H]4[C@H](C)CC[C@@H]1[C@@]24OO3	> 3.05	> 3.05	16 (≈ 24.4 µM)	16 (≈ 24.4 µM)	8 (≈ 12.2 µM)	16 (≈ 24.4 µM)	16 (≈ 24.4 µM)	< 5	< 5	< 5	< 5	< 5						
CCn1cc(C(=O)O)c(=O)c2cc(F)c(N3CCN(CCCO[C@H]4O[C@@H]5O[C@@]6(C)CC[C@H]7[C@H](C)CC[C@@H]([C@H]4C)[C@@]57OO6)CC3)cc21	6.21 (≈ 4 µg/mL)	6.21 (≈ 4 µg/mL)	16 (≈ 24.9 µM)	16 (≈ 24.9 µM)	8 (≈ 12.4 µM)	16 (≈ 24.9 µM)	8 (≈ 12.4 µM)	< 5	< 5	< 5	< 5	< 5						
C[C@H]1[C@@H](OCCCN2CCN(c3cc4c(cc3F)c(=O)c(C(=O)O)cn4-c3ccc(F)cc3)CC2)O[C@@H]2O[C@@]3(C)CC[C@H]4[C@H](C)CC[C@@H]1[C@@]24OO3	> 5.64	> 5.64	16 (≈ 22.5 µM)	16 (≈ 22.5 µM)	16 (≈ 22.5 µM)	16 (≈ 22.5 µM)	4 (≈ 5.64 µM)	10	< 5	< 5	< 5	< 5						
C[C@H]1[C@@H](OCCNC2CCN(c3c(F)cc4c(=O)c(C(=O)O)cn(C5CC5)c4c3Cl)C2)O[C@@H]2O[C@@]3(C)CC[C@H]4[C@H](C)CC[C@@H]1[C@@]24OO3 (stereo not given in full)	0.185 (≈ 0.125 µg/mL)	0.092 (≈ 0.0622 µg/mL)	16 (≈ 23.7 µM)	16 (≈ 23.7 µM)	16 (≈ 23.7 µM)	8 (≈ 11.8 µM)	16 (≈ 23.7 µM)	12	< 5	< 5	8	7	0.125 (≈ 0.185 µM)	0.125 (≈ 0.185 µM)	0.125 (≈ 0.185 µM)	0.125 (≈ 0.185 µM)	0.25 (≈ 0.37 µM)	
C[C@H]1[C@@H](OCCN2CCN(c3cc4c(cc3F)c(=O)c(C(=O)O)cn4C3CC3)CC2)O[C@@H]2O[C@@]3(C)CC[C@H]4[C@H](C)CC[C@@H]1[C@@]24OO3	> 6.23	> 6.23	16 (≈ 24.9 µM)	16 (≈ 24.9 µM)	8 (≈ 12.5 µM)	16 (≈ 24.9 µM)	8 (≈ 12.5 µM)	< 5	< 5	< 5	< 5	< 5						
CCn1cc(C(=O)O)c(=O)c2cc(F)c(N3CCN(CCO[C@H]4O[C@@H]5O[C@@]6(C)CC[C@H]7[C@H](C)CC[C@@H]([C@H]4C)[C@@]57OO6)CC3)cc21	> 3.18	> 3.18	16 (≈ 25.4 µM)	16 (≈ 25.4 µM)	8 (≈ 12.7 µM)	16 (≈ 25.4 µM)	16 (≈ 25.4 µM)	< 5	< 5	< 5	< 5	< 5						
C[C@H]1[C@@H](OCCN2CCN(c3cc4c(cc3F)c(=O)c(C(=O)O)cn4-c3ccc(F)cc3)CC2)O[C@@H]2O[C@@]3(C)CC[C@H]4[C@H](C)CC[C@@H]1[C@@]24OO3	> 2.87	> 2.87	16 (≈ 23 µM)	16 (≈ 23 µM)	16 (≈ 23 µM)	16 (≈ 23 µM)	8 (≈ 11.5 µM)	< 5	< 5	< 5	< 5	< 5						
C[C@H]1[C@@H](O)O[C@@H]2O[C@@]3(C)CC[C@H]4[C@H](C)CC[C@@H]1[C@@]24OO3 [ARTENIMOL]			16 (≈ 56.3 µM)	16 (≈ 56.3 µM)	16 (≈ 56.3 µM)	16 (≈ 56.3 µM)	4 (≈ 14.1 µM)	< 5	< 5	< 5	< 5	< 5	> 16	> 16	> 16	> 16	> 16	> 56
O=C(O)c1cn(C2CC2)c2cc(N3CCNCC3)c(F)cc2c1=O [CIPROFLOXACIN]					8 (≈ 24.1 µM)			24	18	9		42						0.75 (≈ 0.249 µg/mL)
NC1CCN(c2c(F)cc3c(=O)c(C(=O)O)cn(C4CC4)c3c2Cl)C1 (stereo not given) [CLINAFLOXACIN]			4 (≈ 10.9 µM)	0.5 (≈ 1.37 µM)	2 (≈ 5.47 µM)	0.25 (≈ 0.683 µM)	4 (≈ 10.9 µM)	28	32	21	25	43	1 (≈ 2.73 µM)	0.5 (≈ 1.37 µM)	0.25 (≈ 0.683 µM)	0.25 (≈ 0.683 µM)	1 (≈ 2.73 µM)	0.43 (≈ 0.157 µg/mL)
CCn1cc(C(=O)O)c(=O)c2cc(F)c(N3CCNCC3)cc21 [NORFLOXACIN]			16 (≈ 50.1 µM)	2 (≈ 6.26 µM)	16 (≈ 50.1 µM)	2 (≈ 6.26 µM)	4 (≈ 12.5 µM)	17	16	< 5	18	33	8 (≈ 25.1 µM)	4 (≈ 12.5 µM)	4 (≈ 12.5 µM)	4 (≈ 12.5 µM)	4 (≈ 12.5 µM)	6.26 (≈ 2 µg/mL)
CC1COc2c(N3CCN(C)CC3)c(F)cc3c(=O)c(C(=O)O)cn1c23 (stereo not given) [OFLOXACIN]	0.69 (≈ 0.249 µg/mL)	0.69 (≈ 0.249 µg/mL)																
